Test results published in patent US12458621B1, “Application of genipin beta-methyl derivative gen-17 in preparation of drug for prevention and treatment of acute severe pneumonia” (KUNMING MEDICAL UNIVERSITY, priority 2024, dated 2025).

Tests used:
Assay type in all cases: in vivo, Kunming mice
LPS-induced ALI mice = test: Total protein concentration in BALF by BCA; details: compared with LPS group (P<0.05)
Procedure: (§1) A total of 144 SPF-grade healthy Kunming mice, aged 5-7 weeks and weighing 18-22 g, are weighed and randomly allocated into six experimental groups: control group (NS), model group (LPS), dexamethasone group (DEX, […] per kilogram abbreviated as mg/kg), genipin beta-methyl derivative low-dose group (12.5 mg/kg), genipin beta-methyl derivative medium-dose group (25 mg/kg), and genipin beta-methyl derivative high-dose group (50 mg/kg), 24 animals per group, in which 12 animals are used to take lung tissue for the detection of other indicators, and another 12 animals are used to collect BALF.
All mice are gavaged with a same volume of 0.9% normal saline once a day in the NS group and the LPS group, DEX solution (0.39 mg/kg) is gavaged once a day in the DEX group, low-dose Gen-17 solution (12.5 mg/kg) is gavaged once a day in the medium-dose Gen-17 group, medium-dose Gen-17 solution (25 mg/kg) is gavaged once a day in the high-dose Gen-17 group, and high-dose Gen-17 solution (50 mg/kg) is gavaged once a day in the high-dose Gen-17 group. The dosage is converted according to the weight of the mice, and the gavage volume is 20 milliliters per kilogram (mL/kg), and the gavage is continued for 3 days. One hour after the gavage on the third day, the ALI model is established by tracheal instillation of LPS solution. The specific experimental procedures are as follows. • (1) Before the operation, the mice are anesthetized by intraperitoneal injection of 1% sodium pentobarbital (30 mg/kg) according to their body weight. • (2) Limbs of anesthetized mice are fixed with rubber bands, teeth are wired with thin threads, and neck skin is disinfected with 75% alcohol. • (3) A subcutaneous tissue is separated along a longitudinal incision in a middle of the mouse neck until a cartilage ring appeared in an exposed trachea. • (4) A microinjector is inserted into the trachea in parallel towards a proximal end for about 1 centimeter (cm). […]

TNF-α = TNF-α content in BALF by ELISA
Procedure: as §1
All mice are gavaged with a same volume of 0.9% normal saline once a day in the NS group and the LPS group, DEX solution (0.39 mg/kg) is gavaged once a day in the DEX group, low-dose Gen-17 solution (12.5 mg/kg) is gavaged once a day in the medium-dose Gen-17 group, medium-dose Gen-17 solution (25 mg/kg) is gavaged once a day in the high-dose Gen-17 group, and high-dose Gen-17 solution (50 mg/kg) is gavaged once a day in the high-dose Gen-17 group. The dosage is converted according to the weight of the mice, and the gavage volume is 20 milliliters per kilogram (mL/kg), and the gavage is continued for 3 days. One hour after the gavage on the third day, the ALI model is established by tracheal instillation of LPS solution. […]

IL-1β = IL-1β mRNA in lung tissue by qRT-PCR; details: Gen-17 (12.5, 25, 50 mg/kg gavage) compared with LPS group (P<0.001)
Procedure: as §1, with “BALF. […]” for “BALF.”
(§2) Samples are collected 24 hours after the animal model is established. […] Lung tissues are collected and the whole lung wet weight is measured. […] After tidying, the lungs are photographed, excess tissues such as the trachea are cleared away, and the wet weight of the whole lung is measured to calculate the lung index. • (3) The upper lobe of the left lung is fixed in 4% neutral paraformaldehyde, fixed for 24 hours, paraffin-embedded and sectioned for HE staining. • (4) The remaining lung tissues are put into centrifugal tubes separately, quickly frozen in liquid nitrogen, and then stored at −80° C. after the experiment, which is used for the detection of MDA, SOD, western blotting (WB) and reverse transcription polymerase chain reaction (RT-PCR). […]

IL-6 = IL-6 mRNA in lung tissue by qRT-PCR
Procedure: as §1, with “BALF. […]” for “BALF.”
as §2

[1] = system: ERK phosphorylated protein; test: ERK phosphorylated protein in lung tissue by WB
Procedure: as §1, with “BALF. […]” for “BALF.”
as §2

SOD = SOD activity in lung tissue; details: compared with LPS group
Procedure: (§3) The dosage is converted according to the weight of the mice, and the gavage volume is 20 milliliters per kilogram (mL/kg), and the gavage is continued for 3 days. One hour after the gavage on the third day, the ALI model is established by tracheal instillation of LPS solution. […] After the mice are awake, they are raised as usual. 2.3 Treatment of Experimental Animals and Collection of Lung Tissue Specimens
(§4) Samples are collected 24 hours after the animal model is established. The mice are weighed and 12 mice in each group are sacrificed. Lung tissues are collected and the whole lung wet weight is measured. […] After tidying, the lungs are photographed, excess tissues such as the trachea are cleared away, and the wet weight of the whole lung is measured to calculate the lung index. • (3) The upper lobe of the left lung is fixed in 4% neutral paraformaldehyde, fixed for 24 hours, paraffin-embedded and sectioned for HE staining. • (4) The remaining lung tissues are put into centrifugal tubes separately, quickly frozen in liquid nitrogen, and then stored at −80° C. after the experiment, which is used for the detection of MDA, SOD, western blotting (WB) and reverse transcription polymerase chain reaction (RT-PCR). […]
The lung tissue is taken out from −80° C., and its weight is accurately measured.

MDA = MDA content in lung tissue; details: after drug treatment, compared with LPS group
Procedure: as §1, with “BALF. […]” for “BALF.”
as §2

Keap1 = Keap1 protein in lung tissue by WB
Procedure: as §3, §4
The lung tissue is taken out from −80° C., and its weight is accurately measured. […]

HO-1 = HO-1 protein in lung tissue by WB; details: Gen-17 12.5, 25, 50 mg/kg gavage, ALI mice
Procedure: as §1, with “BALF. […]” for “BALF.”
as §2

[2] = high-dose Gen-17 50 mg/kg gavage

In the case of `COC(=O)C1=CO[C@@H](OC)[C@@H]2C(COC(=O)c3cccc(Br)c3)=CC[C@H]12` [Gen-17, genipin beta-methyl derivative], the “total protein content in BALF” value (LPS-induced ALI mice; [2]) is reported as “significantly reduced”, the “total protein content in BALF” value (LPS-induced ALI mice; low-dose Gen-17 12.5 mg/kg gavage) is reported as “significantly reduced” and the “total protein content in BALF” value (LPS-induced ALI mice; middle-dose Gen-17 25 mg/kg gavage) is reported as “significantly reduced”. The “reduction of the TNF-α level in BALF” value (TNF-α; Gen-17 compared with DEX group (P>0.05)) was “no statistically significant difference”, the “content of TNF-α in BALF” value (TNF-α; Gen-17 groups (12.5, 25, 50 mg/kg gavage) compared with LPS group) was “reduce the contents of inflammatory cytokines” and the “mRNA expression of IL-1β in lung tissue” value (IL-1β) was “significantly reduce the expression”. For the same molecule, the “mRNA expression of IL-6 in lung tissue” value (IL-6; Gen-17 (12.5, 25, 50 mg/kg gavage) compared with LPS group (P<0.001)) was “significantly reduce the expression”, the “mRNA expression of IL-6 in lung tissue” value (IL-6; low-dose Gen-17 12.5 mg/kg gavage, compared with DEX group (P<0.001)) was “statistical significance” and the “expression of ERK phosphorylated protein in lung tissue” value ([1]; after drug treatment, compared with LPS group) was “down-regulate the expression of p38, ERK and JNK proteins”. The “expression of ERK phosphorylated protein in lung tissue” value ([1]; low-dose Gen-17 12.5 mg/kg gavage, compared with DEX group) was “statistically significant (P<0.05)”, the “SOD activity in lung tissue” value (SOD; after drug treatment) was “significantly increase the SOD activity” and the “SOD activity in lung tissue (increase)” value (SOD; [2]) was “statistical significance (P<0.05)”. For the same molecule, the “MDA content in the lung tissue homogenate” value (MDA) was “reduce the MDA content”, the “expression of Keap1 protein in lung tissue, overall result” value (Keap1; Gen-17 12.5, 25, 50 mg/kg gavage, ALI mice) was “downregulate the expression of Keap1 protein” and the “expression of Keap1 protein in lung tissue (decrease)” value (Keap1; high-dose Gen-17 50 mg/kg gavage, compared with LPS group) was “statistically significant (P<0.001)”. The “expression of HO-1 protein in lung tissue, overall result” value (HO-1) was “upregulate the expression of Nrf2 and HO-1 protein”.
